Results taken from patent publication EP4252752A1, “DRUG FOR TREATMENT OR PREVENTION OF CEREBRAL HEMORRHAGE, AND METHOD FOR TREATMENT OR PREVENTION OF CEREBRAL HEMORRHAGE USING SAID DRUG” (Biogen MA Inc., priority 2020, dated 2022).

Assays:
Type in all cases: in vivo, SD rats
[1] = tested on: animal model of cerebral hemorrhage; assay: Barnes maze test, collagenase-induced intracerebral hemorrhage (Example 4); conditions: SMTP-7 test solution as in example 1; day 7 to day 10 after collagenase injection; FIG. 11-15
Protocol: (§1) Eight to 10 week old male SD rats (250 to 300 g body weight) were kept under a 12-hour light/dark cycle and a temperature of 22°C ± 1°C. The rats were raised in plastic cages and given free access to water and feed. The number of rats used in each experiment was n = 4 unless otherwise indicated. Moreover, a component other than those listed in the injection solution was physiological saline.
(§2) The rats were anesthetized with isoflurane (1.5% isoflurane + 66% NO + 33% O2) and then injected with collagenase from clostridium histolyticum (type IV, made by Sigma-Aldrich) at a concentration of 0.25 U/µL at a position 3 mm lateral from the center of the brain, at bregma level in the anteroposterior direction and 5 mm behind the stria vascularis using a syringe to inject for 5 minutes at a rate of 0.2 µL/min, then the syringe needle was held at that position for 10 minutes, and then slowly withdrawn over another 10 minutes (0.5 mm per minute). Note that care was taken to prevent backflow during injection. In the following description, the day of this collagenase injection is referred to as day 0. […]
Collagenase injection and test solution injection were performed as in example 1, and a Barnes maze test (Barnes maze test) was performed on day 7 after collagenase injection. […] The time it took to reach the escape box and the number of holes where the rats incorrectly stayed at were evaluated. […]

[2] = tested on: cleaved caspase-3 (Asp175); assay: Antibody staining of brain sections for cleaved caspase-3 (Example 8); conditions: SMTP-7 test solution as in example 1, cerebral cortex, day 7, FIG. 22-24
Protocol: as §1
(§3) The rats were anesthetized with isoflurane (1.5% isoflurane + 66% NO + 33% O2) and then injected with collagenase from clostridium histolyticum (type IV, made by Sigma-Aldrich) at a concentration of 0.25 U/µL at a position 3 mm lateral from the center of the brain, at bregma level in the anteroposterior direction and 5 mm behind the stria vascularis using a syringe to inject for 5 minutes at a rate of 0.2 µL/min, then the syringe needle was held at that position for 10 minutes, and then slowly withdrawn over another 10 minutes (0.5 mm per minute). Note that care was taken to prevent backflow during injection. In the following description, the day of this collagenase injection is referred to as day 0. This collagenase injection causes an intracerebral hemorrhage and the formation of a hematoma. […]

[3] = tested on: animal model of cerebral hemorrhage; assay: Evans blue staining of brain sections, collagenase-induced intracerebral hemorrhage (Example 2); conditions: SMTP-7 test solution as in example 1; 2% Evans blue into tail vein 1 hour before sacrifice, day 7; FIG. 3A-3D, 4, 5
Protocol: as §1
as §2, with “minute).” for “minute). Note that care was taken to prevent backflow during injection. In the following description, the day of this collagenase injection is referred to as day 0.”
The same experiment as in example 1 was performed again. […] Micrographs of whole brains and 3 mm thick sections are illustrated in FIG. 3A to FIG. 3D, and the total area (mm^2) of Evans blue-stained region and staining density determined from the sections using Imaged are shown in FIG. 4 and FIG. 5. […] In FIG. 5, the vertical axis represents the concentration value of Evans blue expressed as absorbance at a wavelength of 620 nm.

[4] = tested on: animal model of cerebral hemorrhage; assay: Hematoxylin-eosin (HE) staining of brain sections, hematoma area (Example 6); conditions: SMTP-7 test solution as in example 1; sections on day 7 after collagenase injection; FIG. 17-18
Protocol: as §1, §3

[5] = tested on: animal model of cerebral hemorrhage; assay: LAN cable walking test of motor function, collagenase-induced intracerebral hemorrhage (Example 5); conditions: SMTP-7 test solution as in example 1; observed for 60 seconds on LAN cable; FIG. 16
Protocol: as §1, §3
Collagenase injection and test solution injection were performed as in example 1, and the motor function of rats was evaluated by having the rats walk on a local area network (LAN) cable. […]

[6] = tested on: animal model of cerebral hemorrhage; assay: Small animal MRI (T2-weighted) of hematoma and edema, collagenase-induced intracerebral hemorrhage (Example 3); conditions: SMTP-7 test solution as in example 1
Protocol: as §1, §2
Collagenase injection and test solution injection were performed as in example 1, and rat brains were measured by small animal MRI on days 1 and 7 after collagenase injection (PharmaScan made by Bruker BioSpin). […] The volume of hematomas was measured based on these MRI measurements using Imaged. […]

[7] = tested on: animal model of cerebral hemorrhage; assay: Hematoma volume in brain sections, collagenase-induced intracerebral hemorrhage (Example 1); conditions: 2 mg/mL solution of SMTP-7 injected into the brain at 0.2 µL/min over 10 minutes, 24 hours after collagenase injection; brain sections on day 7; FIG. 1A-1C, FIG. 2
Protocol: as §1, §3
Moreover, the ratio of volume of hematoma to the volume of the entire brain was also measured using Imaged. […]

[8] = tested on: GFAP; assay: Antibody staining of brain sections with anti-GFAP antibodies (Example 9); conditions: SMTP-7 test solution as in example 1; day 7; FIG. 25-27
Protocol: as §1, §3

[9] = tested on: Iba-1; assay: Antibody staining of brain sections with anti-Iba-1 antibodies (Example 10); conditions: SMTP-7 test solution as in example 1; day 7; FIG. 28-30
Protocol: as §1, §3

[10] = tested on: animal model of cerebral hemorrhage; assay: Luxol fast blue and Cresyl violet double staining, myelin density in white matter (Example 7); conditions: SMTP-7 test solution as in example 1; ipsilateral, contralateral and central sites; day 7; FIG. 19-21
Protocol: as §1, §3

## CC(C)=CCC/C(C)=C/CC[C@]1(C)Oc2c(c(O)cc3c2CN(CCC[C@@H](C(=O)O)N2Cc4c(cc(O)c5c4O[C@@](C)(CC/C=C(\C)CCC=C(C)C)[C@@H](O)C5)C2=O)C3=O)C[C@@H]1O [SMTP-7]
[1]
  learning ability: time required to reach the escape box and number of incorrect holes: marked improvement in learning ability
[2]; contralateral to collagenase injection
  number of cells expressing caspase-3 (immunopositive cells per 100 µm^2 of ROI), contralateral: markedly reduced
[2]; ipsilateral to collagenase injection
  number of cells expressing caspase-3 (immunopositive cells per 100 µm^2 of ROI), ipsilateral: markedly reduced
[3]
  hematoma: total area of Evans blue-stained region and staining density: marked reduction in hematoma
[4]
  area of the hematoma region identified by HE staining: marked reduction in hematoma
[5]
  motor ability: total score (0 to 10) in LAN cable walking test: marked improvement in motor ability
[6]; MRI on days 1 and 7 after collagenase injection, FIG. 6-8
  volume ratio of hematoma in the T2-weighted MRI image: marked reduction in both hematoma and edema
[6]; day 7 after collagenase injection, FIG. 9-10
  ratio of cerebral edema volume in brain volume (MRI): marked reduction in both hematoma and edema
[7]
  ratio of volume of hematoma to the volume of the entire brain: marked reduction in hematoma
[8]
  neuron damage: immunostaining using antibodies against GFAP, number of immunopositive cells: significantly suppressed
[9]
  inflammation: immunostaining using antibodies against Iba-1, number of immunopositive cells: significantly suppressed
[10]
  white matter lesions (demyelination): myelin density in white matter: marked suppression of hematoma lesions
